Here are results for four molecules from PMC2933276 (Nature structural & molecular biology, 2010).

Experiment [1] deals with T1, S. pombe Dcp2 regulatory domain (residues 1-94) (Schizosaccharomyces pombe, UniProt O13828).
T1 sequence (O13828 1-94): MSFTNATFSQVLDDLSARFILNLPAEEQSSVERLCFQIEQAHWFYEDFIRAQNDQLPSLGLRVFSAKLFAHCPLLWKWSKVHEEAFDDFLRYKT
Briefly: […]-HSQC NMR titration. Format: binding.

The target of experiment [2] is T2, S. pombe Dcp2 catalytic domain (residues 95-243) (Schizosaccharomyces pombe, UniProt O13828).
T2 sequence (O13828 95-243): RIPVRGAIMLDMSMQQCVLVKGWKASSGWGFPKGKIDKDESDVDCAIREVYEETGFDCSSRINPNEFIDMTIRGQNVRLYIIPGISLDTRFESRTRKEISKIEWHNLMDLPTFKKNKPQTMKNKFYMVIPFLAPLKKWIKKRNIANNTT
Nature of the experiment: […]-HSQC NMR titration. The experiment is classed as binding.

Experiment [3] concerns the target T3, S. pombe Dcp1-Dcp2 complex (Dcp2 1-243, Dcp1 1-127; D1D2) (Schizosaccharomyces pombe, UniProt O13828).
T3 sequence (O13828 1-243): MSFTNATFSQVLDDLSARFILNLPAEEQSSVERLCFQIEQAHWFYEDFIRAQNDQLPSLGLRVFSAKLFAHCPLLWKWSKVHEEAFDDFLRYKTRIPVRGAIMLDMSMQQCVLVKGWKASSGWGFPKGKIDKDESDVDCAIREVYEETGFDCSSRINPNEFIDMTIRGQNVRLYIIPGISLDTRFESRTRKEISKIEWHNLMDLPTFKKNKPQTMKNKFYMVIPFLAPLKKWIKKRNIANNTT
T3 sequence (Q9P805 1-127 partner): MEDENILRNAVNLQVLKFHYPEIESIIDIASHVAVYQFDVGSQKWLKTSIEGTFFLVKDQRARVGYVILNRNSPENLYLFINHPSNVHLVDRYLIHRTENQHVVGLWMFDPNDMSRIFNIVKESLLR
Nature of the experiment: SAXS, ligand-induced compaction. The experiment is classed as binding. The note with it: 10 mM m7GpppA; pH 7.0, 150 mM NaCl, 50 mM HEPES, 2 mM DTT.

The target in experiment [4] is T4, S. pombe Dcp2 (spDcp2) 1–243 (S. pombe, UniProt O13828 1-243).
T4 sequence: T3 sequence (O13828 1-243)
Briefly: SEC.

The next experiment addresses S. pombe Dcp2 1–243 W43A (S. pombe, UniProt O13828 1-243, W43A). Briefly: SEC.
Experiment [5] concerns the target S. pombe Dcp2 1–243 R167Q (S. pombe, UniProt O13828 1-243, R167Q). Briefly: SEC.

With `Nc1nc2c(ncn2[C@@H]2O[C@H](COP(=O)(O)OP(=O)(O)O)[C@@H](O)[C@H]2O)c(=O)[nH]1` [GDP], the Kd in experiment [1] is around 40 mM.
In the case of `C[n+]1cn([C@@H]2O[C@H](COP(=O)(O)OP(=O)(O)O)[C@@H](O)[C@H]2O)c2nc(N)[nH]c(=O)c21` [m^7GDP], the Kd in experiment [2] is 12 mM; in experiment [1], around 12 mM.
As to `C[n+]1cn([C@@H]2O[C@H](COP(=O)(O)OP(=O)(O)OP(=O)(O)OC[C@H]3O[C@@H](n4cnc5c(N)ncnc54)[C@H](O)[C@@H]3O)[C@@H](O)[C@H]2O)c2nc(N)[nH]c(=O)c21` [m^7GpppA], the “SAXS, ligand-induced compaction” value in experiment [3] is recorded as “reveals a compaction in the presence of cap-analog m^7GpppA that is small but reproducible”.

B1: S. pombe Dcp1 1–127 (natural protein)
chain: T3 sequence (Q9P805 1-127 partner)
Take B1: the binding result (in experiment [4]; in the experiment with S. pombe Dcp2 1–243 W43A; in experiment [5]) was “binds” each time.
